Experimental findings from US8940291B2 (priority 2009, dated 2015) are described below.

In this assay the test system is VSVΔ51-resistant CT26 colon carcinoma tumors. Further details: species or system Balb/c mice. Conditions: mouse, in vivo, ip.

As to `O=C1OC(c2ccccc2)C(Cl)=C1Cl` (centres unmarked) [VSe1, 3,4-dichloro-5-phenyl-2,5-dihydrofuran-2-one], the “tumor growth, compound alone” value is recorded as “neither VSe1 nor VSVΔ51 alone had a significant effect on tumor growth” and the “tumor progression, combination with VSVΔ51” value is listed as “significant delay in tumor progression”.
